# Patent US20140323952A1, “METHODS FOR PROSTATECTOMY” (priority 2011, published 2014)
# Tests used:
# [1] = tested on: men undergoing robotic radical prostatectomy; experiment: Prospective outcome study of robotic radical prostatectomy with phenylephrine infiltration for hemostasis (57 men, IIEF >= 20): continence by pad use, potency by intercourse; format: in vivo, human
# Method: (§1) A group of men who were in need of a prostatectomy were tested. All men undergoing robotic radical prostatectomy after June 2009 were given informed consent regard to and asked to participate in a prospective study of outcomes of robotic radical prostatectomy. Baseline data were obtained preoperatively with regard to sexual and urinary function using self-administered International Index of Erectile Function and International Prostate Symptom Score Questionnaires. Additionally, patients were asked if they had experienced intercourse, urinary incontinence or pad used in the 4 weeks prior to the initial screening visit. Only patients with a pre-operative score on the International Index of Erectile Function of greater than or equal to 20 were included in the post-operative analysis of continence and potency.
# (§2) A standard method of prostatectomy was used except that hemostasis was achieved by the infiltration of phenylephrine at a concentration of 100 micrograms per milliliter into the anterior and antero lateral bladder neck (1000 micrograms), right lateral bladder neck (1,000 micrograms), left lateral bladder neck (1,000 micrograms), right prostatic vascular pedicle and neurovascular margin (1,000 micrograms) and left prostatic vascular pedicles and neurovascular margin (1,000 micrograms) for a total of 5,000 micrograms of the agent. Sharp cold dissection was then performed with either the Snap Blade or the Shears with rare spot use of bipolar cautery. Monopolar cautery was not used during any part of the procedure.
# Continence was assessed in the post-operative period by pad use with one pad per day or less being considered as “socially continent.” The use of zero pads per day was considered “absolutely continent” Or “complete continence.” The time necessary to achieve each of these milestones was recorded individually for each subject. The end point of sexual recovery was intercourse, and the experience of intercourse was monitored at each post-operative visit. Intercourse was experienced by 21% of men within the 4 weeks prior to initial evaluation. […] Additional follow-up evaluations were done at 8 and 12 weeks post-operative time points. […] Intercourse at the 9 month interval (39 weeks) was established by phone interview in those men not reporting intercourse at the 6 month visit, and for whom interim follow up was not scheduled.
# All patients in this study were given informed consent for participation in a prospective study of outcomes of robotic radical prostatectomy. No patients withdrew. Fifty seven (57) men among all patients operated had IIEF scores of 20 or greater. Two patients refused or were lost to follow-up for other reasons. All observations were collected in a prospective fashion and maintained in our IRB approved database of patients having robotic surgery.
# Analysis of differences in means was performed by Student's t-test. The differences in proportions were calculated by the Chi-squared test. The probability of return of social continence, absolute continence, and the probability of intercourse was calculated by the Kaplan Meier function.
# [2] = tested on: men undergoing robotic radical prostatectomy; experiment: Ongoing study of the 57 subjects plus 23 new subjects (80 men): intercourse and pad use after prostatectomy with phenylephrine infiltration; format: in vivo, human; conditions: for Intercourse: reflects use of phosphodiesterase inhibitors
# Method: as §1, §2
# Continence was assessed in the post-operative period by pad use with one pad per day or less being considered as “socially continent.” The use of zero pads per day was considered “absolutely continent” Or “complete continence.” The time necessary to achieve each of these milestones was recorded individually for each subject. The end point of sexual recovery was intercourse, and the experience of intercourse was monitored at each post-operative visit. Intercourse was experienced by 21% of men within the 4 weeks prior to initial evaluation. It is noteworthy that two (2) weeks lapsed between the surgery and the removal of the urinary catheter, thus the initial evaluation of sexual function occurred 2 weeks following removal of the catheter, or 4 weeks following surgery. Additional follow-up evaluations were done at 8 and 12 weeks post-operative time points. […] Intercourse at the 9 month interval (39 weeks) was established by phone interview in those men not reporting intercourse at the 6 month visit, and for whom interim follow up was not scheduled.
# An ongoing study of the 57 subjects described above as well as an additional 23 new subjects was also performed.
# [3] = 2 weeks postoperative, 57 patients
# [4] = 4 weeks postoperative, 57 patients
# [5] = 6 weeks postoperative, 57 patients
# [6] = 8 weeks postoperative, 56 patients
# [7] = 12 weeks postoperative, 55 patients
# [8] = 26 weeks postoperative, 46 patients
# [9] = 39 weeks postoperative, 38 patients
# [10] = 52 weeks postoperative, 37 patients
# [11] = 78 weeks postoperative, 23 patients
# [12] = 12 weeks (3 mos) post op, 77 patients
# [13] = 26 weeks (6 mos) post op, 71 patients
# [14] = 39 weeks (9 mos) post op, 63 patients
# [15] = 52 weeks (12 mos) post op, 53 patients
# [16] = 78 weeks (1.5 yrs) post op, 30 patients
# [17] = 104 weeks (2.0 yrs) post op, 14 patients
# [18] = within about 52 weeks following surgery, FIG. 4
compound,measurement,setting,value
CNC[C@H](O)c1cccc(O)c1 [phenylephrine],Complete Continence Number (%),[1]; [3],10 (18%) Number (%)
same,Potency Number (%),[1]; [3],7 (12%) Number (%)
same,Social Continence Number (%),"[1]; 2 weeks postoperative, 57 patients, 5,000 micrograms phenylephrine infiltrated",20 (35%) Number (%)
same,Complete Continence Number (%),[1]; [4],17 (30%) Number (%)
same,Potency Number (%),[1]; [4],12 (21%) Number (%)
same,Social Continence Number (%),[1]; [4],31 (54%) Number (%)
same,Complete Continence Number (%),[1]; [5],16 (28%) Number (%)
same,Potency Number (%),[1]; [5],14 (25%) Number (%)
same,Social Continence Number (%),[1]; [5],32 (56%) Number (%)
same,Complete Continence Number (%),[1]; [6],17 (30%) Number (%)
same,Potency Number (%),[1]; [6],15 (27%) Number (%)
same,Social Continence Number (%),[1]; [6],33 (58%) Number (%)
same,Complete Continence Number (%),[1]; [7],20 (36%) Number (%)
same,Potency Number (%),[1]; [7],23 (42%) Number (%)
same,Social Continence Number (%),[1]; [7],40 (73%) Number (%)
same,Complete Continence Number (%),[1]; [8],26 (57%) Number (%)
same,Potency Number (%),[1]; [8],24 (52%) Number (%)
same,Social Continence Number (%),[1]; [8],40 (87%) Number (%)
same,Complete Continence Number (%),[1]; [9],24 (63%) Number (%)
same,Potency Number (%),[1]; [9],20 (53%) Number (%)
same,Social Continence Number (%),[1]; [9],34 (89%) Number (%)
same,subjects at risk with social continence,"[1]; 52-week mark, Kaplan Meier plot FIG. 1",100%
same,Complete Continence Number (%),[1]; [10],35 (95%) Number (%)
same,Potency Number (%),[1]; [10],34 (92%) Number (%)
same,Social Continence Number (%),[1]; [10],37 (100%) Number (%)
same,subjects with complete continence,"[1]; 78-week time point, Kaplan Meier plot FIG. 2",100%
same,potency following surgery,"[1]; 78-week time point, Kaplan Meier plot FIG. 3",Complete potency was achieved
same,Complete Continence Number (%),[1]; [11],23 (100%) Number (%)
same,Potency Number (%),[1]; [11],23 (100%) Number (%)
same,Social Continence Number (%),[1]; [11],23 (100%) Number (%)
same,Potency Number (%),"[1]; week 0 (pre-surgical baseline), 57 patients, intercourse",51 (89%) Number (%)
same,Social Continence Number (%),"[1]; week 0 (pre-surgical baseline), 57 patients, one pad per day or less",57 (100%) Number (%)
same,Complete Continence Number (%),"[1]; week 0 (pre-surgical baseline), 57 patients, zero pads per day",57 (100%) Number (%)
same,men who experienced intercourse,[1]; within the 4 weeks prior to initial evaluation (4 weeks following surgery),21%
same,One or less pad per 24 hours,"[2]; 2 weeks post op, 79 patients",32%
same,Zero Pads per 24 hours,"[2]; 2 weeks post op, 79 patients",18%
same,Intercourse,"[2]; 2 weeks post op, 79 patients",10%
same,One or less pad per 24 hours,"[2]; 4 weeks post op, 78 patients",49%
same,Zero Pads per 24 hours,"[2]; 4 weeks post op, 78 patients",28%
same,Intercourse,"[2]; 4 weeks post op, 78 patients",19%
same,One or less pad per 24 hours,"[2]; 6 weeks post op, 77 patients",58%
same,Zero Pads per 24 hours,"[2]; 6 weeks post op, 77 patients",27%
same,Intercourse,"[2]; 6 weeks post op, 77 patients",25%
same,One or less pad per 24 hours,"[2]; 8 weeks post op, 77 patients",60%
same,Zero Pads per 24 hours,"[2]; 8 weeks post op, 77 patients",28%
same,Intercourse,"[2]; 8 weeks post op, 77 patients",27%
same,One or less pad per 24 hours,[2]; [12],73%
same,Zero Pads per 24 hours,[2]; [12],36%
same,Intercourse,[2]; [12],42%
same,One or less pad per 24 hours,[2]; [13],89%
same,Zero Pads per 24 hours,[2]; [13],52%
same,Intercourse,[2]; [13],58%
same,One or less pad per 24 hours,[2]; [14],92%
same,Zero Pads per 24 hours,[2]; [14],65%
same,Intercourse,[2]; [14],67%
same,One or less pad per 24 hours,[2]; [15],100%
same,Zero Pads per 24 hours,[2]; [15],85%
same,Intercourse,[2]; [15],83%
same,One or less pad per 24 hours,[2]; [16],100%
same,Zero Pads per 24 hours,[2]; [16],83%
same,Intercourse,[2]; [16],77%
same,One or less pad per 24 hours,[2]; [17],100%
same,Zero Pads per 24 hours,[2]; [17],93%
same,Intercourse,[2]; [17],93%
same,time within which social continence was achieved for all subjects,"[2]; following surgery, FIG. 4",≤ 52 weeks
same,One or less pad per 24 hours,"[2]; week 0 (Pre Op), 80 patients",100%
same,Zero Pads per 24 hours,"[2]; week 0 (Pre Op), 80 patients",99%
same,Intercourse,"[2]; week 0 (Pre Op), 80 patients",90%
same,subjects achieving absolute continence,[2]; [18],more than 80%
same,subjects achieving sexual function (intercourse),[2]; [18],about 80%
